Measurements: US8741836B2, “Polypeptides” (Novo Nordisk A/S, priority 2011, dated 2014)
Starred links: 1 amine or outer side, 2 acyl side, 3 side chain; linkers in the order of their positions; H or OH if unused. Positions of bridges follow the written chain, without caps; N, C: chain ends. Residues, ends and D or L forms follow the SMILES beside them. Groups on a side chain read outwards from the residue. *: point of attachment. C20 diacid = O=C(O)CCCCCCCCCCCCCCCCCCC(=O)*; C18 diacid = O=C(O)CCCCCCCCCCCCCCCCC(=O)*; γGlu = O=C(O)[C@H](CCC(=O)[*:2])N[*:1]

Legend:
[1] = Assay (III) ThT fibrillation assay for physical stability; assay type: physicochemical; details: for ThT pH 4.0 lag time: pH 4.0, ThT fibrillation assay
How it was run: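 Freshly prepared, pH-adjusted formulations with 1 μM ThT incubated at 37 °C under 960 rpm orbital shaking (1 mm), fluorescence (ex 444, em 485 nm) read every 20 min. […] Peptide content before and after measured by reverse-phase HPLC against pramlintide standard.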

ad libitum fed rat = assay: Assay (I) efficacy testing on appetite (food intake) using an ad libitum fed rat model; assay type: in vivo, Sprague Dawley (SD) rats
How it was run: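 Ad libitum fed Sprague Dawley rats, 200-250 g, singly housed on reversed light cycle, got one ip, po or sc dose of 0.01-3 mg/kg just before lights off; groups of 5-8 with vehicle control. Food intake recorded hourly for 7 h, then at 24 h and sometimes 48 h; Grubbs outliers excluded.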

SMILES	ThT pH 4.0 lag time [1]	ThT pH 4.0 lag time (physical stability in fibrillogenesis assay) [1]	Food intake reduction 0-24 h 3 nmol/kg (%) (ad libitum fed rat; 0-24 h)	Food intake reduction 24-48 h 3 nmol/kg (%) (ad libitum fed rat; 24-48 h)	Food intake reduction 0-24 h 30 nmol/kg (%) (ad libitum fed rat; 30 nmol/kg, 0-24 h)	Food intake reduction 24-48 h 30 nmol/kg (%) (ad libitum fed rat; 30 nmol/kg, 24-48 h)
CC[C@H](C)[C@H](NC(=O)[C@@H]1CCCN1C(=O)CNC(=O)[C@H](Cc1ccccc1)NC(=O)[C@H](CC(N)=O)NC(=O)[C@H](CC(N)=O)NC(=O)[C@H](CO)NC(=O)[C@H](CO)NC(=O)[C@H](Cc1c[nH]cn1)NC(=O)[C@H](Cc1c[nH]cn1)NC(=O)[C@H](CC(C)C)NC(=O)[C@H](Cc1ccccc1)NC(=O)[C@H](CCC(=O)O)NC(=O)[C@H](C)NC(=O)[C@H](CC(C)C)NC(=O)[C@H](CCCNC(=N)N)NC(=O)[C@H](CCC(N)=O)NC(=O)[C@@H](NC(=O)[C@H](C)NC(=O)[C@@H]1CSSC[C@H](NC(=O)[C@H](CCCCN)NC(=O)CC[C@H](NC(=O)CCCCCCCCCCCCCCCCCCC(=O)O)C(=O)O)C(=O)N[C@@H](CC(N)=O)C(=O)N[C@@H]([C@@H](C)O)C(=O)N[C@@H](C)C(=O)N[C@@H]([C@@H](C)O)C(=O)N1)[C@@H](C)O)C(=O)N[C@@H](CC(C)C)C(=O)N1CCC[C@H]1C(=O)N1CCC[C@H]1C(=O)N[C@H](C(=O)N[C@@H](CC(N)=O)C(=O)N[C@H](C(=O)NCC(=O)N[C@@H](CO)C(=O)N[C@@H](CC(N)=O)C(=O)N[C@H](C(=O)N1CCC[C@H]1C(N)=O)[C@@H](C)O)C(C)C)[C@@H](C)O [Example 52, N-alpha-[(S)-4-Carboxy-4-(19-carboxynonadecanoylamino)butyryl]-[Glu14,His17,Pro37]-pramlintide] ({C20 diacid-γGlu}-KCNTATCATQRLAEFLHHSSNNFGPILPPTNVGSNTP-NH2; disulfide 2-7)	>45 h		62%	74%		
CC[C@H](C)[C@H](NC(=O)[C@@H]1CCCN1C(=O)CNC(=O)[C@H](Cc1ccccc1)NC(=O)[C@H](CC(N)=O)NC(=O)[C@H](CCC(N)=O)NC(=O)[C@H](CO)NC(=O)[C@H](CO)NC(=O)[C@H](Cc1c[nH]cn1)NC(=O)[C@H](Cc1c[nH]cn1)NC(=O)[C@H](CC(C)C)NC(=O)[C@H](Cc1ccccc1)NC(=O)[C@H](CCC(=O)O)NC(=O)[C@H](C)NC(=O)[C@H](CC(C)C)NC(=O)[C@H](CCCNC(=N)N)NC(=O)[C@H](CCC(N)=O)NC(=O)[C@@H](NC(=O)[C@H](C)NC(=O)[C@@H]1CSSC[C@H](NC(=O)[C@H](CCCCN)NC(=O)CC[C@H](NC(=O)CCCCCCCCCCCCCCCCCCC(=O)O)C(=O)O)C(=O)N[C@@H](CC(N)=O)C(=O)N[C@@H]([C@@H](C)O)C(=O)N[C@@H](C)C(=O)N[C@@H]([C@@H](C)O)C(=O)N1)[C@@H](C)O)C(=O)N[C@@H](CC(C)C)C(=O)N1CCC[C@H]1C(=O)N1CCC[C@H]1C(=O)N[C@H](C(=O)N[C@@H](CC(N)=O)C(=O)N[C@H](C(=O)NCC(=O)N[C@@H](CO)C(=O)N[C@@H](Cc1c[nH]cn1)C(=O)N[C@H](C(=O)N[C@@H](Cc1ccc(O)cc1)C(N)=O)[C@@H](C)O)C(C)C)[C@@H](C)O [Example 117, N-alpha-[(S)-4-Carboxy-4-(19-carboxynonadecanoylamino)butyryl]-[Glu14,His17,Gln21,His35)-pramlintide] ({C20 diacid-γGlu}-KCNTATCATQRLAEFLHHSSQNFGPILPPTNVGSHTY-NH2; disulfide 2-7)	>45 h	>45 h	50%	35%		

More lines, main results first:

ThT pH 4.0 lag time [1]	ThT pH 4.0 lag time (physical stability in fibrillogenesis assay) [1]	SMILES	Food intake reduction 0-24 h 3 nmol/kg (%) (ad libitum fed rat; 0-24 h)	Food intake reduction 24-48 h 3 nmol/kg (%) (ad libitum fed rat; 24-48 h)	Food intake reduction 0-24 h 30 nmol/kg (%) (ad libitum fed rat; 30 nmol/kg, 0-24 h)	Food intake reduction 24-48 h 30 nmol/kg (%) (ad libitum fed rat; 30 nmol/kg, 24-48 h)
>45 h		CC[C@H](C)[C@H](NC(=O)[C@@H]1CCCN1C(=O)CNC(=O)[C@H](Cc1ccccc1)NC(=O)[C@H](CC(N)=O)NC(=O)[C@H](CC(N)=O)NC(=O)[C@H](CO)NC(=O)[C@H](CO)NC(=O)[C@H](Cc1c[nH]cn1)NC(=O)[C@H](CCCNC(=N)N)NC(=O)[C@H](CC(C)C)NC(=O)[C@H](Cc1ccccc1)NC(=O)[C@H](CCC(=O)O)NC(=O)[C@H](C)NC(=O)[C@H](CC(C)C)NC(=O)[C@H](CCCNC(=N)N)NC(=O)[C@H](CCC(N)=O)NC(=O)[C@@H](NC(=O)[C@H](C)NC(=O)[C@@H]1CSSC[C@H](NC(=O)[C@H](CCCCN)NC(=O)[C@H](Cc2c[nH]cn2)NC(=O)CC[C@H](NC(=O)CCCCCCCCCCCCCCCCC(=O)O)C(=O)O)C(=O)N[C@@H](CC(N)=O)C(=O)N[C@@H]([C@@H](C)O)C(=O)N[C@@H](C)C(=O)N[C@@H]([C@@H](C)O)C(=O)N1)[C@@H](C)O)C(=O)N[C@@H](CC(C)C)C(=O)N1CCC[C@H]1C(=O)N1CCC[C@H]1C(=O)N[C@H](C(=O)N[C@@H](CC(N)=O)C(=O)N[C@H](C(=O)NCC(=O)N[C@@H](CO)C(=O)N[C@@H](Cc1c[nH]cn1)C(=O)N[C@H](C(=O)N[C@@H](Cc1ccc(O)cc1)C(N)=O)[C@@H](C)O)C(C)C)[C@@H](C)O [Example 71, N-alpha-[(S)-4-Carboxy-4-(17-carboxyheptadecanoylamino)butyryl]-His-[Glu14,Arg17,His35]-pramlintide] ({C18 diacid-γGlu}-HKCNTATCATQRLAEFLRHSSNNFGPILPPTNVGSHTY-NH2; disulfide 3-8 (inferred))	10%	0%		
25 h		CC[C@H](C)[C@H](NC(=O)[C@@H]1CCCN1C(=O)CNC(=O)[C@H](Cc1ccccc1)NC(=O)[C@H](CC(N)=O)NC(=O)[C@H](CC(N)=O)NC(=O)[C@H](CO)NC(=O)[C@H](CO)NC(=O)[C@H](Cc1c[nH]cn1)NC(=O)[C@H](Cc1c[nH]cn1)NC(=O)[C@H](CC(C)C)NC(=O)[C@H](Cc1ccccc1)NC(=O)[C@H](CCC(=O)O)NC(=O)[C@H](C)NC(=O)[C@H](CC(C)C)NC(=O)[C@H](CCCNC(=N)N)NC(=O)[C@H](CCC(N)=O)NC(=O)[C@@H](NC(=O)[C@H](C)NC(=O)[C@@H]1CSSC[C@H](NC(=O)[C@@H](N)CCCCNC(=O)CC[C@H](NC(=O)CCCCCCCCCCCCCCCCCCC(=O)O)C(=O)O)C(=O)N[C@@H](CC(N)=O)C(=O)N[C@@H]([C@@H](C)O)C(=O)N[C@@H](C)C(=O)N[C@@H]([C@@H](C)O)C(=O)N1)[C@@H](C)O)C(=O)N[C@@H](CC(C)C)C(=O)N1CCC[C@H]1C(=O)N1CCC[C@H]1C(=O)N[C@H](C(=O)N[C@@H](CC(N)=O)C(=O)N[C@H](C(=O)NCC(=O)N[C@@H](CO)C(=O)N[C@@H](Cc1c[nH]cn1)C(=O)N[C@H](C(=O)N[C@@H](Cc1ccc(O)cc1)C(N)=O)[C@@H](C)O)C(C)C)[C@@H](C)O [Example 87, N-epsilon1-[(S)-4-Carboxy-4-(19-carboxynonadecanoylamino)butyryl]-[Glu14,His17,His35]-pramlintide] (H-K([γGlu-C20 diacid])CNTATCATQRLAEFLHHSSNNFGPILPPTNVGSHTY-NH2; disulfide 2-7 (inferred); C-terminus assumed)	66%	47%		
>45 h	>45 h	CC[C@H](C)[C@H](NC(=O)[C@@H]1CCCN1C(=O)CNC(=O)[C@H](Cc1ccccc1)NC(=O)[C@H](CC(N)=O)NC(=O)[C@H](CC(N)=O)NC(=O)[C@H](CO)NC(=O)[C@H](CO)NC(=O)[C@H](Cc1c[nH]cn1)NC(=O)[C@H](Cc1c[nH]cn1)NC(=O)[C@H](CC(C)C)NC(=O)[C@H](Cc1ccccc1)NC(=O)[C@H](CCC(=O)O)NC(=O)[C@H](C)NC(=O)[C@H](CC(C)C)NC(=O)[C@H](CCCNC(=N)N)NC(=O)[C@H](CCC(N)=O)NC(=O)[C@@H](NC(=O)[C@H](C)NC(=O)[C@@H]1CSSC[C@H](NC(=O)[C@H](CCCNC(=N)N)NC(=O)CNC(=O)CC[C@H](NC(=O)CCCCCCCCCCCCCCCCCCC(=O)O)C(=O)O)C(=O)N[C@@H](CC(N)=O)C(=O)N[C@@H]([C@@H](C)O)C(=O)N[C@@H](C)C(=O)N[C@@H]([C@@H](C)O)C(=O)N1)[C@@H](C)O)C(=O)N[C@@H](CC(C)C)C(=O)N1CCC[C@H]1C(=O)N1CCC[C@H]1C(=O)N[C@H](C(=O)N[C@@H](CC(N)=O)C(=O)N[C@H](C(=O)NCC(=O)N[C@@H](CO)C(=O)N[C@@H](CC(N)=O)C(=O)N[C@H](C(=O)N1CCC[C@H]1C(N)=O)[C@@H](C)O)C(C)C)[C@@H](C)O [Example 101, N-alpha-[(S)-4-Carboxy-4-(19-carboxynonadecanoylamino)butyryl]-Gly-[Arg1,Glu14,His17,Pro37]-pramlintide] ({C20 diacid-γGlu}-GRCNTATCATQRLAEFLHHSSNNFGPILPPTNVGSNTP-NH2; disulfide 3-8)	70%	90%		
>45 h		CC[C@H](C)[C@H](NC(=O)[C@@H]1CCCN1C(=O)CNC(=O)[C@H](Cc1ccccc1)NC(=O)[C@H](CC(N)=O)NC(=O)[C@H](CC(N)=O)NC(=O)[C@H](CO)NC(=O)[C@H](CO)NC(=O)[C@H](Cc1c[nH]cn1)NC(=O)[C@H](CCCNC(=N)N)NC(=O)[C@H](CC(C)C)NC(=O)[C@H](Cc1ccccc1)NC(=O)[C@H](CCC(=O)O)NC(=O)[C@H](C)NC(=O)[C@H](CC(C)C)NC(=O)[C@H](CCCNC(=N)N)NC(=O)[C@H](CCC(N)=O)NC(=O)[C@@H](NC(=O)[C@H](C)NC(=O)[C@@H]1CSSC[C@H](NC(=O)[C@H](Cc2c[nH]cn2)NC(=O)[C@H](Cc2c[nH]cn2)NC(=O)[C@H](Cc2c[nH]cn2)NC(=O)CC[C@H](NC(=O)CCCCCCCCCCCCCCCCCCC(=O)O)C(=O)O)C(=O)N[C@@H](CC(N)=O)C(=O)N[C@@H]([C@@H](C)O)C(=O)N[C@@H](C)C(=O)N[C@@H]([C@@H](C)O)C(=O)N1)[C@@H](C)O)C(=O)N[C@@H](CC(C)C)C(=O)N1CCC[C@H]1C(=O)N1CCC[C@H]1C(=O)N[C@H](C(=O)N[C@@H](CC(N)=O)C(=O)N[C@H](C(=O)NCC(=O)N[C@@H](CO)C(=O)N[C@@H](CC(N)=O)C(=O)N[C@H](C(=O)N[C@@H](Cc1ccc(O)cc1)C(N)=O)[C@@H](C)O)C(C)C)[C@@H](C)O [Example 12, N-alpha-[(S)-4-Carboxy-4-(19-carboxynonadecanoylamino)butyryl]-His-His-[His1,Glu14,Arg17]-pramlintide] ({C20 diacid-γGlu}-HHHCNTATCATQRLAEFLRHSSNNFGPILPPTNVGSNTY-NH2; disulfide 4-9 (inferred))			70%	45%
